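All cell lines were grown in 96-well plates and treated with compound for 48 hours. GI50 marks 50% less growth. TGI: concentration producing complete growth inhibition.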

Some test systems named below: PC-3 prostate; NCI-H23 lung; DU-145 prostate; MDA-MB-435; HCT-116 colon; NCI/ADR-RES ovarian; LOX IMVI melanoma; CAKI-1 renal; IGROV1 ovarian; NCI-H460 lung.
Holding throughout (assay): NCI tumour cell line growth inhibition, 48 h

As for `O=C(Nc1cccc(-n2cc(-c3ccncc3)c(-c3ccc(O)c(Cl)c3)n2)c1)c1ccc(Cl)c(Cl)c1`, the GI50 in the assay on PC-3 prostate was 5.16 µM; in the assay with NCI-H23 lung, 15 µM; in the assay on DU-145 prostate, 20.9 µM; with MDA-MB-435, 6.06 µM; with HCT-116 colon, 5.95 µM; in the assay with NCI/ADR-RES ovarian, 5.26 µM. Also, the GI50 in the assay with LOX IMVI melanoma was 7.21 µM; in the assay on CAKI-1 renal it was 3.38 µM; in the assay on IGROV1 ovarian it was 25.5 µM; in the assay on NCI-H460 lung, 3.91 µM. Moreover, the TGI is more than 100 µM in the assay on PC-3 prostate; more than 100 µM in the assay with NCI-H23 lung; more than 100 µM in the assay on DU-145 prostate; 46.2 µM in the assay with MDA-MB-435; more than 100 µM with HCT-116 colon; 65.5 µM with NCI/ADR-RES ovarian. Besides, the TGI with LOX IMVI melanoma, in the assay with CAKI-1 renal, in the assay with IGROV1 ovarian and in the assay on NCI-H460 lung was more than 100 µM throughout.

Take `Nc1cc2nc3ccccc3oc-2cc1=O`: the GI50 with PC-3 prostate was 16.7 µM; in the assay on NCI-H23 lung, 0.811 µM; in the assay on DU-145 prostate, 1.57 µM; in the assay with MDA-MB-435, 0.516 µM; with HCT-116 colon, 6.1 µM; with NCI/ADR-RES ovarian, 9.16 µM. Moreover, the GI50 in the assay on LOX IMVI melanoma is 0.606 µM; in the assay with CAKI-1 renal, 15.3 µM; in the assay on IGROV1 ovarian, 2.79 µM; in the assay with NCI-H460 lung, 1.77 µM. Also, the TGI in the assay on PC-3 prostate was more than 100 µM; with NCI-H23 lung it was 3.56 µM; with DU-145 prostate, 2.98 µM; in the assay with MDA-MB-435, 1.77 µM; in the assay on HCT-116 colon, more than 68 µM; in the assay on NCI/ADR-RES ovarian it was more than 88.9 µM. For the same compound, the TGI in the assay with LOX IMVI melanoma was 2.23 µM; with CAKI-1 renal, more than 53.7 µM; with IGROV1 ovarian, 21.2 µM; in the assay with NCI-H460 lung it was 4.36 µM.

In the case of `CCOC(=O)c1nc2cc(C(F)(F)F)ccc2[n+]([O-])c1C`, the GI50 with PC-3 prostate, in the assay on NCI-H23 lung, with DU-145 prostate, with MDA-MB-435, in the assay on HCT-116 colon and in the assay with NCI/ADR-RES ovarian was more than 100 µM each time. Further, the GI50 in the assay with LOX IMVI melanoma, in the assay on CAKI-1 renal, with IGROV1 ovarian and in the assay with NCI-H460 lung was more than 100 µM in each case. Moreover, the TGI with PC-3 prostate, in the assay on NCI-H23 lung, in the assay on DU-145 prostate, in the assay on MDA-MB-435, in the assay on HCT-116 colon and with NCI/ADR-RES ovarian was more than 100 µM throughout. Further, the TGI with LOX IMVI melanoma, with CAKI-1 renal, in the assay with IGROV1 ovarian and with NCI-H460 lung was more than 100 µM in each case.

For `COC(=O)[C@@H](OC)[C@@H]1Cc2cc3cc(OC4CC(OC5CC(O)C(O)C(C)O5)C(O)C(C)O4)c(C)c(O)c3c(O)c2C(=O)[C@H]1OC1CC(OC2CC(OC3CC(C)(O)C(O)C(C)O3)C(O)C(C)O2)C(O)C(C)O1` (some centres not stated), the GI50 is 0.0429 µM in the assay on PC-3 prostate; 0.0345 µM in the assay with NCI-H23 lung; 0.0433 µM in the assay with DU-145 prostate; 0.0274 µM in the assay with MDA-MB-435; 0.0246 µM in the assay on HCT-116 colon; 0.688 µM in the assay on NCI/ADR-RES ovarian. Also, the GI50 is 0.026 µM with LOX IMVI melanoma, 0.0425 µM in the assay on CAKI-1 renal, 0.0299 µM with IGROV1 ovarian and 0.0429 µM in the assay on NCI-H460 lung. Also, the TGI with PC-3 prostate was 0.188 µM; in the assay on DU-145 prostate, more than 16.5 µM; in the assay with MDA-MB-435, 0.0605 µM; with HCT-116 colon, more than 16.5 µM; with NCI/ADR-RES ovarian, more than 16.5 µM; with LOX IMVI melanoma it was more than 5.38 µM. Further, the TGI with IGROV1 ovarian and in the assay on NCI-H460 lung was more than 16.5 µM each time.

In the case of `O=Nc1c(O)c2ccccc2c2ccccc12`, the GI50 was 0.633 µM with PC-3 prostate; 0.464 µM in the assay with NCI-H23 lung; 0.961 µM with DU-145 prostate; 0.179 µM in the assay on MDA-MB-435; 0.371 µM in the assay on HCT-116 colon; 0.387 µM in the assay on NCI/ADR-RES ovarian. In addition, the GI50 was 0.294 µM with LOX IMVI melanoma, 2.95 µM with CAKI-1 renal, 1.83 µM in the assay with IGROV1 ovarian and 1.06 µM with NCI-H460 lung. Also, the TGI with PC-3 prostate was 2.73 µM; in the assay with NCI-H23 lung, 3.86 µM; in the assay with DU-145 prostate it was 2.23 µM; with MDA-MB-435 it was 0.317 µM; in the assay on HCT-116 colon, 1.33 µM; in the assay on NCI/ADR-RES ovarian it was 2.95 µM. Further, the TGI in the assay with LOX IMVI melanoma came out at 1.06 µM; in the assay on CAKI-1 renal, 9 µM; with IGROV1 ovarian, 3.51 µM; in the assay on NCI-H460 lung it was 2.49 µM.

With `CN(C)CCOc1ccc(-c2cc(-c3ccc4c(c3)CC/C4=N\O)c(-c3ccncc3)o2)cc1`, the GI50 in the assay on PC-3 prostate is 4.16 µM; in the assay on NCI-H23 lung it was 3.21 µM; in the assay with DU-145 prostate, 3.78 µM; in the assay on MDA-MB-435 it was 0.156 µM; in the assay with HCT-116 colon it was 1.29 µM; in the assay on NCI/ADR-RES ovarian, 5.05 µM. For the same compound, the GI50 is 1.66 µM in the assay with LOX IMVI melanoma, 4.19 µM in the assay on CAKI-1 renal, 4.7 µM in the assay on IGROV1 ovarian and 1.1 µM in the assay on NCI-H460 lung. Besides, the TGI was 8.22 µM in the assay on PC-3 prostate; 7.12 µM with NCI-H23 lung; 7.38 µM in the assay with DU-145 prostate; 4.39 µM with MDA-MB-435; 4.5 µM with HCT-116 colon; 11 µM with NCI/ADR-RES ovarian. Besides, the TGI in the assay on LOX IMVI melanoma was found to be 5.63 µM; in the assay with CAKI-1 renal, 8.71 µM; in the assay on IGROV1 ovarian it was 10.1 µM; with NCI-H460 lung, 3.95 µM.

As to `NCCN1C(=O)c2ccccc2C1(O)c1ccc(Cl)cc1` (configuration not stated), the TGI with PC-3 prostate was 50 µM; with NCI-H23 lung it was more than 100 µM; with DU-145 prostate, more than 100 µM; in the assay with MDA-MB-435 it was 28.6 µM; with HCT-116 colon it was 31.7 µM; with NCI/ADR-RES ovarian it was more than 100 µM. For the same compound, the TGI was 32.8 µM in the assay with LOX IMVI melanoma, more than 100 µM in the assay on CAKI-1 renal, 41 µM in the assay on IGROV1 ovarian and 30.4 µM in the assay with NCI-H460 lung.

With `Cc1cc2c(=O)[nH]c(N)nc2nc1C`, the TGI in the assay with PC-3 prostate, in the assay on NCI-H23 lung, in the assay on DU-145 prostate, in the assay with MDA-MB-435, in the assay with HCT-116 colon and with NCI/ADR-RES ovarian was more than 100 µM in each case. Also, the TGI with LOX IMVI melanoma, in the assay with CAKI-1 renal, with IGROV1 ovarian and in the assay with NCI-H460 lung was more than 100 µM throughout.

With `COc1cc(C2C3=C(COC3=O)Nc3cc4c(cc32)OCO4)cc2c1OCO2` (configuration not stated), the GI50 in the assay with PC-3 prostate was 0.0629 µM; with NCI-H23 lung, 0.0757 µM; in the assay on DU-145 prostate, 0.0832 µM; with MDA-MB-435, 0.0238 µM; with HCT-116 colon, 0.0905 µM; in the assay with NCI/ADR-RES ovarian, 0.0785 µM. Further, the GI50 was 0.0801 µM in the assay with LOX IMVI melanoma, 0.156 µM in the assay on CAKI-1 renal, 0.127 µM with IGROV1 ovarian and 0.0734 µM in the assay on NCI-H460 lung. Further, the TGI in the assay with PC-3 prostate is more than 100 µM; in the assay on DU-145 prostate it was 0.459 µM; in the assay on MDA-MB-435, 0.0664 µM; in the assay on HCT-116 colon, 3.49 µM; with NCI/ADR-RES ovarian, 0.606 µM; in the assay with LOX IMVI melanoma it was more than 100 µM. Also, the TGI was more than 100 µM in the assay on CAKI-1 renal, more than 100 µM in the assay with IGROV1 ovarian and more than 35 µM in the assay on NCI-H460 lung.

As to `CCc1ncnc2cc(OCC3CO3)c(OC)cc12` (configuration not stated), the TGI in the assay with PC-3 prostate is more than 100 µM; with NCI-H23 lung, 16.2 µM; in the assay with DU-145 prostate, more than 100 µM; in the assay with MDA-MB-435, 21.7 µM; in the assay on HCT-116 colon it was more than 33.7 µM; in the assay on NCI/ADR-RES ovarian, more than 100 µM. For the same compound, the TGI with LOX IMVI melanoma is more than 46.9 µM; with CAKI-1 renal, more than 100 µM; with IGROV1 ovarian, 6.8 µM; in the assay on NCI-H460 lung it was 43.8 µM.

For `COc1ccc(C(=O)OC2C(OC3C(O)COC(O[C@H]4C[C@H]5[C@@H]6CC=C7C[C@@H](O)CC[C@]7(C)[C@H]6CC[C@]5(C)[C@H]4[C@H](C)C(=O)CCC(C)C)C3OC(C)=O)OCC(O)C2O)cc1` (some centres not stated), the GI50 with PC-3 prostate was less than 0.003 µM; with NCI-H23 lung, 0.0144 µM; in the assay on DU-145 prostate it was less than 0.003 µM; in the assay on MDA-MB-435 it was less than 0.003 µM; in the assay with HCT-116 colon, less than 0.003 µM; with NCI/ADR-RES ovarian, 7.49 µM. Further, the GI50 in the assay on LOX IMVI melanoma, in the assay on CAKI-1 renal, in the assay with IGROV1 ovarian and with NCI-H460 lung was less than 0.003 µM throughout. The TGI was found to be 0.311 µM with PC-3 prostate; 3.37 µM in the assay on NCI-H23 lung; 24.3 µM with DU-145 prostate; 0.0435 µM in the assay with MDA-MB-435; 3.15 µM with HCT-116 colon; 30 µM in the assay with NCI/ADR-RES ovarian. For the same compound, the TGI in the assay on LOX IMVI melanoma is 0.00483 µM; in the assay on CAKI-1 renal, 0.349 µM; in the assay with IGROV1 ovarian, 8.79 µM; in the assay on NCI-H460 lung, 0.306 µM.

As for `CCN(CC)c1ccc(/C=C/C=C(/C#N)C(N)=S)cc1`, the GI50 in the assay on PC-3 prostate is 5.21 µM; with NCI-H23 lung, 8.45 µM; in the assay with DU-145 prostate, 3.88 µM; in the assay on MDA-MB-435 it was 5.01 µM; in the assay on HCT-116 colon, 3.58 µM; in the assay on NCI/ADR-RES ovarian, 3.85 µM. The GI50 in the assay on LOX IMVI melanoma is 4.71 µM; in the assay with CAKI-1 renal, 31.8 µM; with IGROV1 ovarian it was 17.9 µM; in the assay with NCI-H460 lung, 18.1 µM. In addition, the TGI is more than 100 µM in the assay with PC-3 prostate; more than 100 µM in the assay with NCI-H23 lung; more than 100 µM in the assay on DU-145 prostate; more than 100 µM in the assay with MDA-MB-435; 17.7 µM with HCT-116 colon; more than 100 µM in the assay with NCI/ADR-RES ovarian. Also, the TGI in the assay with LOX IMVI melanoma is 28.3 µM; with CAKI-1 renal it was more than 100 µM; with IGROV1 ovarian, more than 100 µM; in the assay with NCI-H460 lung, more than 100 µM.

These data come from PubChem BioAssay (NCI).
